{"source": "patent US9101616B2", "about": "“Aryl substituted carboxamide derivatives as calcium or sodium channel blockers” (RaQualia Pharma Inc., priority 2009, dated 2015)"}
{"test_system": "rats", "assay": "not given", "conditions": "rat, in vivo; cited from earlier work"}
{"smiles": "NC1=N[C@H](O)[C@H]2[C@H]3O[C@]4(O)O[C@@H]([C@@H](O)[C@@]2(N1)[C@@H]4O)[C@]3(O)CO", "note": "[TTX, tetrodotoxin]", "effect on mechanical allodynic behavior": "significantly reduces mechanical allodynic behavior"}
{"test_system": "chronic pain", "assay": "not given", "conditions": "in vivo; cited from earlier work"}
{"smiles": "CCN(CC)CC(=O)Nc1c(C)cccc1C", "note": "[lidocaine]", "effect on chronic pain": "effective to treat chronic pain"}
{"molecular_target": "T1, human T-type channel alpha-1H (CaV 3.2) (Homo sapiens, UniProt O95180)", "T1 construct": "expressed in transfected cells; host or cells: HEK 293", "T1 sequence (O95180 whole entry)": "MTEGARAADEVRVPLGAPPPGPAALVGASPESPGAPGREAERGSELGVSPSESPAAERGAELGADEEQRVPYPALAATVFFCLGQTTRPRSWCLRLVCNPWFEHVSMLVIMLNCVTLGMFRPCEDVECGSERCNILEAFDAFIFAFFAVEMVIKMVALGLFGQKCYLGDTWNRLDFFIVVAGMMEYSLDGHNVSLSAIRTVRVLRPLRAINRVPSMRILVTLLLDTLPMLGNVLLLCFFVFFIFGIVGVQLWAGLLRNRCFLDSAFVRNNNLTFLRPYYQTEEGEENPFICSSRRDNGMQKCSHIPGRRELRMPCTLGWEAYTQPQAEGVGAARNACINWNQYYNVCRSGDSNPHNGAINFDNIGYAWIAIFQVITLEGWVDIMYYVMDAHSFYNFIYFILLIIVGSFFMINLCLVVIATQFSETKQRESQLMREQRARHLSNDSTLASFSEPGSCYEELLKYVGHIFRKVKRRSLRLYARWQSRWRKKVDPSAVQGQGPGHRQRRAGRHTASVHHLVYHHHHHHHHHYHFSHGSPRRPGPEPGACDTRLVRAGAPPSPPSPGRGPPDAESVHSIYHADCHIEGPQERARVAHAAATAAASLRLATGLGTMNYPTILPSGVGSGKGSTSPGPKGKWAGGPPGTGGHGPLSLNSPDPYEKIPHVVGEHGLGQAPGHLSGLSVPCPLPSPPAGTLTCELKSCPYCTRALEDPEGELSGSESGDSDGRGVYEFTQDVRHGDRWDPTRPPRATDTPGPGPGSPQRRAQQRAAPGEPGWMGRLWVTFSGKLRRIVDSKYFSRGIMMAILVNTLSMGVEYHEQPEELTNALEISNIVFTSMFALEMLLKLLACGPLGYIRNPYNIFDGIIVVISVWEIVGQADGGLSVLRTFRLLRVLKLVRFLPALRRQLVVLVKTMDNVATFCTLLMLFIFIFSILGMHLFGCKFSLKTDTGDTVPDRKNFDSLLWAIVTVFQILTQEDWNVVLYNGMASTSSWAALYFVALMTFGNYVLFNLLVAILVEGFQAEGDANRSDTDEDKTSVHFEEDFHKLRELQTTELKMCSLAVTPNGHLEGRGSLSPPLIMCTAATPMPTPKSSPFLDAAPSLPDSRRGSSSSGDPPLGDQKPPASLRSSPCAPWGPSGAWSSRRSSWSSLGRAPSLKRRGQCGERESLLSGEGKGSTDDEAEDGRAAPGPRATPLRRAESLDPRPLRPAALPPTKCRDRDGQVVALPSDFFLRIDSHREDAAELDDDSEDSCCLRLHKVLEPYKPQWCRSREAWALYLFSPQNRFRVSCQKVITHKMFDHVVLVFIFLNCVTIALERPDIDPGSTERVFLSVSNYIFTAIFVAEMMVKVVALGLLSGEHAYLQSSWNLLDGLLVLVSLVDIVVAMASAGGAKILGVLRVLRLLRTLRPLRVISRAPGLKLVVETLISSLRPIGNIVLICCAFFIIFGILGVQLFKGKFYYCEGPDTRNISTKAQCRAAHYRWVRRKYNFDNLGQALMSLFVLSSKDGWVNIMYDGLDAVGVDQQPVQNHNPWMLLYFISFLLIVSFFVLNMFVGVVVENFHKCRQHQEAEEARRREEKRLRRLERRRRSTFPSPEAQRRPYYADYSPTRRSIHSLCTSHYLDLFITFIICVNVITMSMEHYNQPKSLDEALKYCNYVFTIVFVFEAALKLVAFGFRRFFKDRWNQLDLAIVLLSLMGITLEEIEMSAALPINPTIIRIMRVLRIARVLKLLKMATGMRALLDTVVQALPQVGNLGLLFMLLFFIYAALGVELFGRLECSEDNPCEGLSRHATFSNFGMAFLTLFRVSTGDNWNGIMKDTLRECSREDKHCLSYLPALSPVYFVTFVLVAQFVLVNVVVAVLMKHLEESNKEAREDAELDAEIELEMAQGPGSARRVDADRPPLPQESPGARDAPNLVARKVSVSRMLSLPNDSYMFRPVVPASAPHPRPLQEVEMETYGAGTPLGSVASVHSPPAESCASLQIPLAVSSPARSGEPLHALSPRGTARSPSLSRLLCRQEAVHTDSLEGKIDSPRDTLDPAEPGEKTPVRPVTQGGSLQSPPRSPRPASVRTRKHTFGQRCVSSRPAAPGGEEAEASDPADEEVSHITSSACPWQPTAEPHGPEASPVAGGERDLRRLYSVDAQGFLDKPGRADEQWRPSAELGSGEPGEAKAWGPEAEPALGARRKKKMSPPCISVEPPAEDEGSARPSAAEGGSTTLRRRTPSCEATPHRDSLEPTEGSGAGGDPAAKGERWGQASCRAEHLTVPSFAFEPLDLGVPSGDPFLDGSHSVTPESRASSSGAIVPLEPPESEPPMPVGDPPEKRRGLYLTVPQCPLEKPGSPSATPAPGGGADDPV", "assay": "Ca2+ Influx Assay (cell-based fluorescent, FDSS)", "conditions": "HEK 293 cells expressing human CaV 3.2", "how_it_was_run": "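HEK293 cells stably expressing human CaV3.2, loaded with Fluo-4-AM 1 h at 37 °C. Compound added 4.5 min before potassium ionophore, then high-K+ depolarization with fluorescence monitored on FDSS. IC50 from 7-point dose-response, duplicate wells.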", "units": {"IC50": "nM"}}
{"smiles": "C[C@H](NC(=O)[C@@H]1C[C@H]1c1cccc(OCc2ccccc2)c1)c1ccc(OCC(F)(F)F)cn1", "note": "(stereo in doubt) [Example 346, (1R*,2R*)-2-(3-(benzyloxy)phenyl)-N-((S)-1-(5-(2,2,2-trifluoroethoxy)pyridin-2-yl)ethyl)cyclopropanecarboxamide]", "IC50": "≤ 300"}
{"smiles": "C[C@@H](NC(=O)COc1ccc(C(F)(F)F)cc1)c1ccc(OCC(F)(F)F)cn1", "note": "[Example 3, (R)-N-(1-(5-(2,2,2-trifluoroethoxy)pyridin-2-yl)ethyl)-2-(4-(trifluoromethyl)phenoxy)acetamide]", "IC50": "≤ 300"}
{"smiles": "C[C@@H](NC(=O)CCc1c[nH]c2ccccc12)c1ccc(OCC(F)(F)F)cn1", "note": "[Example 33, (R)-3-(1H-indol-3-yl)-N-(1-(5-(2,2,2-trifluoroethoxy)pyridin-2-yl)ethyl)propanamide]", "IC50": "≤ 300"}
{"smiles": "C[C@@H](NC(=O)CCCc1c[nH]c2ccccc12)c1ccc(OCC(F)(F)F)cn1", "note": "[Example 57, (R)-4-(1H-indol-3-yl)-N-(1-(5-(2,2,2-trifluoroethoxy)pyridin-2-yl)ethyl)butanamide]", "IC50": "≤ 300"}
{"smiles": "Cc1cc(OCC(F)(F)F)cnc1[C@@H](C)NC(=O)CCc1c[nH]c2ccccc12", "note": "[Example 104, (R)-3-(1H-indol-3-yl)-N-(1-(3-methyl-5-(2,2,2-trifluoroethoxy)pyridin-2-yl)ethyl)propanamide]", "IC50": "≤ 300"}
{"smiles": "C[C@@H](NC(=O)C1CC1c1cc(F)cc(F)c1)c1ccc(OCC2CC2)cn1", "note": "(stereo partly drawn) [Example 193, trans-N-((R)-1-(5-(cyclopropylmethoxy)pyridin-2-yl)ethyl)-2-(3,5-difluorophenyl) cyclopropanecarboxamide]", "IC50": "≤ 300"}
{"smiles": "C[C@@H](NC(=O)C1CC1c1cc2cc(F)ccc2[nH]1)c1ccc(OCC(F)(F)F)nc1", "note": "(stereo partly drawn) [Example 210, trans-2-(5-fluoro-1H-indol-2-yl)-N-((R)-1-(6-(2,2,2-trifluoroethoxy)pridin-3-yl)ethyl)cyclopropanecarboxamide]", "IC50": "≤ 300"}
{"smiles": "C[C@@H](NC(=O)C1CC1c1ccc2cnn(C)c2c1)c1ccc(OCC(F)(F)F)nc1", "note": "(stereo partly drawn) [Example 228, trans-2-(1-methyl-1H-indazol-6-yl)-N-((R)-(6-(2,2,2-trifluoroethoxy)pyridin-3-yl)ethyl)cyclopropanecarboxamide]", "IC50": "≤ 300"}
{"smiles": "C[C@@H](NC(=O)C1CC1c1ccc2cnn(C)c2c1)c1cnc(OCC(F)(F)F)cn1", "note": "(stereo partly drawn) [Example 229, trans-2-(1-methyl-1H-indazol-6-yl)-N-((R)-1-(5-(2,2,2-trifluoroethoxy)pyrazin-2-yl)ethyl)cyclopropanecarboxemide]", "IC50": "≤ 300"}
